Source: PMC12480666, “A robust platform streamlining aromatic noncanonical amino acid biosynthesis and genetic code expansion in Escherichia coli” (Nature Communications, 2025)

Target: T1, TyrB (aromatic amino acid aminotransferase) (Escherichia coli, UniProt P04693)
T1 construct: recombinant, purified from E. coli
T1 sequence (P04693 1-397): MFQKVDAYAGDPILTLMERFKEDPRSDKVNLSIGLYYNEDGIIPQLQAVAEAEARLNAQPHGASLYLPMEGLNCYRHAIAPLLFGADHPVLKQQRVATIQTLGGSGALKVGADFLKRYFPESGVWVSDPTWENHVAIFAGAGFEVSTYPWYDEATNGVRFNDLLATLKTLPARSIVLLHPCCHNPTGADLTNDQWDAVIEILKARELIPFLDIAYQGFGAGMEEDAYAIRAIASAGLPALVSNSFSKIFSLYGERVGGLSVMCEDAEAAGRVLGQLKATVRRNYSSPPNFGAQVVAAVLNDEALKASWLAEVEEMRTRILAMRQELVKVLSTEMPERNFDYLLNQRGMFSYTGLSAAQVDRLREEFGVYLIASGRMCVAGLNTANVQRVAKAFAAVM
Test: in vitro cascade of purified PpLTA, RpTD and TyrB
Type: biochemical
Conditions: final transamination step

Structure (SMILES) | in vitro cascade of purified PpLTA, RpTD and TyrB (from 1 mM para-methylbenzaldehyde) | in vitro cascade of purified PpLTA, RpTD and TyrB (from 1 mM para-iodobenzaldehyde)
Cc1ccc(C[C@H](N)C(=O)O)cc1 [p-methylphenylalanine] | the enzyme cascade efficiently converted the substrates into their corresponding amino acids | 
N[C@@H](Cc1ccc(I)cc1)C(=O)O [compound 19, p-iodophenylalanine] |  | the enzyme cascade efficiently converted the substrates into their corresponding amino acids
